# Measurements reported in ChEMBL document CHEMBL1148004, “Synthesis, characterization and antiamoebic activity of new indole-3-carboxaldehyde thiosemicarbazones and their Pd(II) complexes” (Eur J Med Chem, 2007).
# Test system: Entamoeba histolytica
# Assay: Antiamoebic activity against Entamoeba histolytica HM1:IMSS by microdilution method
# Format: functional, organism-based
row,SMILES,IC50 [µM]
1,S=C(N/N=C\c1c[nH]c2ccccc12)NC1C2CC3CC(C2)CC1C3 (configuration not stated),1.08
2,S=C(N/N=C\c1c[nH]c2ccccc12)N1CCN(c2ccccc2)CC1,3.09
3,S=C(N/N=C\c1c[nH]c2ccccc12)N1CCCc2ccccc21,1.68

# Now from value to compound:
row,IC50 [µM],SMILES
1,6.08,S=C(N/N=C\c1c[nH]c2ccccc12)NC1CCCCCCC1
2,8.37,CC1CCN(C(=S)N/N=C\c2c[nH]c3ccccc23)CC1
3,14.6,S=C(N/N=C\c1c[nH]c2ccccc12)N1CCCC1
4,13.9,S=C(N/N=C\c1c[nH]c2ccccc12)NC1CCCC1
